This is an account of results in patent US20050136020A1, “Silicone-free long-lasting shine hair care compositions” (priority 2003, published 2005).

Series [1] in a line: Solubility and visual clarity of PEG/PPG-8/3 Laurate in water and oils. Type of series: physicochemical. Here is the method:
Solubility is the ability of one substance to blend uniformly with another, e.g. solid in liquid or liquid in liquid. Clarity is determined visually. A turbidity meter may be used to measure clarity if the system is not absolutely clear. The solubility of PEG/PPG-8/3 Laurate is up to fifty percent (50%) in water. […] The solubility of PEG/PPG-8/3 Laurate is up to ten percent (10%) in sunflower oil and in castor oil. […] In soybean oil, it is clear at five percent (5%) and slightly hazy at ten percent (10%).

A short description of the next series: Index of refraction. The class given is physicochemical. Here is the method:
Preferably, the hair care compositions of the present invention have PEG/PPG-8/3 Laurate. […] Refractive index impacts the overall clarity of the present composition. It is preferred to have an aqueous-based composition with a clear color for aesthetic appeal. The hair care compositions of the present invention have a Shine Index of at least 5 hours, preferably about 8 or more hours, and most preferably up to 18 hours or more, thereby providing for extended life shine. “Shine Index” as used herein is the length of time shine persists on treated hair, as evaluated in the test protocol described in Example 1.

Take PEG/PPG-8/3 Laurate: the “solubility in castor oil” value in series [1] (in castor oil) is on record as ≤ 10%. The “clarity (visual) in soybean oil at 5%” value in series [1] (in soybean oil, five percent (5%)) is listed as “clear”. In addition, the “clarity (visual) in soybean oil at 10%” value in series [1] (in soybean oil, ten percent (10%)) was “slightly hazy”. Besides, in series [1] (in sunflower and castor oil, up to its solubility limit), the “clarity (visual) in sunflower and castor oil” value is “clear and homogenous”. Further, in series [1] (in sunflower oil), the “solubility in sunflower oil” value is ≤ 10%. Also, the solubility in water in series [1] (in water) was ≤ 50%. For the same substance, in series [1] (in water, at concentrations up to its solubility limit), the “clarity (visual) in water” value was “clear and homogeneous”. The index of refraction result in “Index of refraction” is “about 1.456”.
